Test results: patent US20240248100A1, “SEPTAPEPTIDES ASSOCIATED WITH NEURODEGENERACY” (SEPTA THERAPEUTICS, INC., priority 2018, published 2024)
“Also recorded” adds a separate entry of the source.

Key:
THP-1 cells = assay: Ca+2 mobilization (Indo-1AM fluorescence) and desensitization in THP-1 monocytic cells; type: cell-based; settings: for DESENSITIZATION: desensitization of subsequent Ca+2 mobilization by MCP-1 or heterologous septapeptide; for Ca^+2 flux: peptide alone
Excerpt: Alternately, chemokine activity can be measured more quantitatively using Ca^+2 mobilization. Chemokines including MCP-1, -2 and -3 bind to several transmembrane, G-protein-linked receptors on the surface of monocytes, macrophages and microglia. Ligand binding induces signal transduction through the receptor-associated heterotrimeric G-proteins, leading to the generation of free Ca^+2 in the cytoplasm of chemokine-stimulated cells. The Ca^+2 rise is transient, and can be measured using a spectrofluorimeter. (The Cytokine Handbook) A typical readout is represented in FIG. 3, showing a positive Ca^+2 mobilization response to MCP-1 in THP-1 cells. THP-1 monocytic cells were loaded with the Ca^+2 indicator dye Indo-1AM and their cytoplasmic Ca^+2 content was measured during laser excitation. As Ca^+2 increases in the cytoplasm, the relative fluorescence intensity (RFI) of the dye increases in real time, exciting the detectors in the spectrofluorimeter. For example, after MCP-1 challenge of THP-1 cells, the RFI increases rapidly, and returns to baseline after about 60 seconds, as exemplified by the “spike” in the trace in FIG. 3 (the smaller peak before the large spike is an artifact generated by the introduction of the sample). Because the heterotrimeric G-proteins involved in the generation of the Ca^+2 signal are both rapidly dissociated and deactivated by phosphorylation, the increase in cytoplasmic Ca^+2 after ligand engagement can be desensitized. Therefore, challenging the cells a second time with MCP-1 would not result in a second spike, nor would a Ca^+2 spike result from subsequent challenge by another ligand which engages the same MCP-1 receptor
Some of the bacterial septapeptide MRHAS's (Sigma) were tested for their ability to increase cytoplasmic Ca^+2, and to desensitize subsequent Ca^+2 mobilization by MCP-1 and heterologous septapeptides. […] These included QQTAPKA (SEQ ID NO: 12) of L.monocytogenes (Figure. 4) and QVQNNKP (SEQ ID NO: 13) from H.influenzae type b (FIG. 5).

RG progenitor cells = assay: Maturation (mitogenic-like) activity on rat glial (RG) progenitor cell monolayers, scored visually; type: cell-based; settings: 72 hours, above untreated baseline
Procedure: Since no appropriate CNS-derived cells are available for the detection of Ca^+2 mobilization, a continuous cell line of glial stem cells was established in culture in order to detect mitogenic-like effects scored upon visual examination. Glial cells from normal brain following kainic acid-induced lesions were established in continuous cell culture as previously described by Singh VK and Van Alstyne D., Brain Res (1978) 155:418-421.) Briefly, 1 ul of a solution of kainic acid monohydrate (Sigma), containing 5 nmole kainic acid in 0.9% saline, was injected into rat striatum under anaesthesia. Rats were anaesthetized and decapitated 5 days following injection and the brains were harvested immediately and placed in a sterile glass culture dish. The striatum from the injection site was dissected, placed in MEM (Gibco) containing 0.2% glucose, 10% fetal calf serum, 5 units/ml penicillin, 5 ug/ml streptomycin and then further minced using a sterile scalpel. The culture dish was then incubated at 37° C. in a humidified atmosphere containing 5% CO2. Each day for the first 3-4 days, the unattached tissue fragments were removed, washed once in fresh medium and returned to the culture dish until a complete monolayer was formed. The resulting monolayers were then subcultured every 5-6 days after trypsinization. The monolayers were treated with 0.25% trypsin (Gibco) for 5 minutes at 22° C. The cells were collected by low speed centrifugation, washed twice with complete growth medium, counted and replated in glass culture dishes. Once the cell line was established in glass dishes, the cells were then adapted and transferred to plastic culture dishes.
The mitogenic effect of diBcAMP on RG monolayers is shown in FIGS. 7A (untreated) and 7B (treated) cells after 24 hours. […] Mature cells were characterized using ThermoFisher Scientific CD11b and GFAP (Glial Fibrillary Acidic Protein) monoclonal antibodies AlexaFluor commonly used to detect microglial- and astrocyte-specific markers respectively. (Tran, E., et al. J. Neuroimmunology 74 (1997) 121-129). FIGS. 8A-8D show identical cells under brightfield illumination, with positive staining for microglial and astrocyte markers (CD11b and GFAP markers respectively. The identification of the majority of these cells as microglia, a subset of astrocytes, is significant since an overabundance of microglia has been associated with the development of AD (Weizmann Institute of Science, “The brain's rejuvenating cells,” Science Daily, 9 June, 2017:sciencedaily.com/release/2017/06/170609135903).
Peptides derived from amyloid beta and synthesized by Kinexus Inc. (Vancouver, Canada) were tested for their effects on RG cell cultures, according to the method of Yankner BR, et al., Science (1990) 250:279-282. Since septapeptides may be too small or unstable to form avid bonds with cell surface receptors, the 7 mer was bracketed within a slightly longer 10-mer construct, in order to maximize stability during the incubation procedure. A randomized sequence was used as a negative control.
These peptides were dissolved in DMSO (dimethyl sulfoxide) to maintain stability. This solvent slightly altered the shape of some cells at lower dilutions of peptide, giving a high background. Therefore, to avoid any interference with the results, RG cells were incubated in the presence of peptide concentrations ranging from […] to 10^-7 M for 72 hours. Positive cells were counted and data are presented as the number greater than the baseline number of maximal mature glia in untreated control cultures achieved by day 3, taken to be zero. Results are shown in Table 3 and photos of transformed cells are contained in FIGS. 9A and 9B.

RG cells = settings: 1 mM dB-cAMP; cited from earlier work

QQTAPKA [L. monocytogenes-derived MRHAS septapeptide]
DESENSITIZATION (THP-1 cells): lack of subsequent desensitization to MCP 1; also recorded: negative for MCP-1
Ca^+2 flux (THP-1 cells): positive; also recorded: mild Ca^+2 agonists

QVQNNKP [H. influenzae type b-derived MRHAS septapeptide]
relative fluorescence intensity (RFI) (THP-1 cells; Ca+2 mobilization response): 2.0
DESENSITIZATION (THP-1 cells): blocks activation by the Listeria-derived MRHAS; also recorded: positive for QQTAPKA
Ca^+2 flux (THP-1 cells): mild Ca^+2 agonists; also recorded: weakly positive

^13HHEQKLVFFAE^22 (HHQKLVFFAE) [Peptide #2]
Maturation activity, % conversion (RG progenitor cells; peptide 10^−6 M (1 uM)): 41%
Maturation activity, % conversion (RG progenitor cells; peptide 10^−7 M (100 nM)): 27%
Maturation activity, % conversion (RG progenitor cells; peptide 10^−7 M (100 nM), listed as HHQKLVFFAE): 27%

QQQPPKA [S. pneumoniae-derived MRHAS septapeptide]
DESENSITIZATION (THP-1 cells): blocks activation by the Listeria-derived MRHAS; also recorded: positive for QQTAPKA
Ca^+2 flux (THP-1 cells): negative; also recorded: did not induce a Ca^+2 signal

^1DAEFRHDSGYEVHHQKLVF^19 [Peptide #1]
Maturation activity, % conversion (RG progenitor cells; peptide 10^−6 M (1 uM)): 63%
Maturation activity, % conversion (RG progenitor cells; peptide 10^−7 M (100 nM)): 41%

CCCC(=O)Nc1ncnc2c1ncn2[C@@H]1O[C@@H]2COP(=O)(O)O[C@H]2[C@H]1OC(=O)CCC [diBcAMP, dibutyryl cyclicAMP]
cells with intracellular astrocyte-specific GFA protein (RG cells): 80%
cells with surface oligodendrocyte-specific galactocerebroside (GC) (RG cells): less than 10%

FLVKAHEQFH [Peptide #3, reference compound]
Maturation activity, % conversion (RG progenitor cells; peptide 10^−6 M (1 uM)): <1%
Maturation activity, % conversion (RG progenitor cells; peptide 10^−7 M (100 nM)): <1%

MCP-1: human Monocyte Chemoattractant Protein 1, chemokine, positive control
Ca^+2 flux (THP-1 cells): positive
Ca^+2 flux (THP-1 cells; listed as hMCP-1): positive Ca^+2 responses
